Measured values published in ChEMBL document CHEMBL1201862, “PubChem BioAssay data set” (2004).
Calls of active or inactive are those of the source.

Legend:
[1] = target: T1, Endoribonuclease toxin MazF (Escherichia coli K-12, UniProt P0AE70); assay: MazF toxin RNase activators, dose response, biochemical, fluorescence, single-stranded RNA substrate, uHTS hits (AID 588481); assay type: functional
T1 sequence (P0AE70 whole entry): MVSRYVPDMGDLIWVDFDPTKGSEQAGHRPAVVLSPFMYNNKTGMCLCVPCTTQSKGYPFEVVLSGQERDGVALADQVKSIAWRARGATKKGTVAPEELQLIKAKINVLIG

[2] = target: T1, Endoribonuclease toxin MazF; assay: fluorescent RNA oligo signal without MazF, dose response, counter-screen for MazEF activator project, biochemical, fluorescence, single-stranded RNase substrate (AID 588502); assay type: functional
Albumin = Albumin (Bos taurus, UniProt P02769); assay: Counterscreen for inhibitors of T-cell receptor (TCR)-CD3 interaction: Fluorescence-based biochemical high throughput dose response assay to identify inhibitors of T-cell receptor (TCR)-CD3 interaction using a TAMRA-labeled BSA probe.; assay type: functional
Sequence of Albumin (P02769 whole entry): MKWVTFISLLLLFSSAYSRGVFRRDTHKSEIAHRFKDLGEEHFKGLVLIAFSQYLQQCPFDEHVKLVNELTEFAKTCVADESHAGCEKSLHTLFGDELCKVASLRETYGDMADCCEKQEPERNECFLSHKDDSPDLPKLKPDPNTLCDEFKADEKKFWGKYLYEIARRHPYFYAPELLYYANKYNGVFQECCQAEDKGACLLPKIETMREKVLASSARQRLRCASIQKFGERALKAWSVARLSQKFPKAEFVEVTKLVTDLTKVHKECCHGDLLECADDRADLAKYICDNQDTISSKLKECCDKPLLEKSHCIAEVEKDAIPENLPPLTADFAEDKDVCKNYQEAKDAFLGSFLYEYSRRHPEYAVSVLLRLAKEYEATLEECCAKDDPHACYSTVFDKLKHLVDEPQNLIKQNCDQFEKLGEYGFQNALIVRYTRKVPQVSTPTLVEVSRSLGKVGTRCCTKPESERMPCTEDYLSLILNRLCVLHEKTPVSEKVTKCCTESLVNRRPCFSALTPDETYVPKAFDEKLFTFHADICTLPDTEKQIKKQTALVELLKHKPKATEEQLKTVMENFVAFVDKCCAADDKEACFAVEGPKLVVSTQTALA

[3] = target: T2, Sentrin-specific protease 1 (Homo sapiens, UniProt Q9P0U3); assay: potency of human SENP1 inhibitors, dose response, biochemical, kinetic FRET (AID 651697); assay type: functional; conditions: read-out: IC50_Mean
T2 sequence (Q9P0U3 whole entry, the tested form may be a part): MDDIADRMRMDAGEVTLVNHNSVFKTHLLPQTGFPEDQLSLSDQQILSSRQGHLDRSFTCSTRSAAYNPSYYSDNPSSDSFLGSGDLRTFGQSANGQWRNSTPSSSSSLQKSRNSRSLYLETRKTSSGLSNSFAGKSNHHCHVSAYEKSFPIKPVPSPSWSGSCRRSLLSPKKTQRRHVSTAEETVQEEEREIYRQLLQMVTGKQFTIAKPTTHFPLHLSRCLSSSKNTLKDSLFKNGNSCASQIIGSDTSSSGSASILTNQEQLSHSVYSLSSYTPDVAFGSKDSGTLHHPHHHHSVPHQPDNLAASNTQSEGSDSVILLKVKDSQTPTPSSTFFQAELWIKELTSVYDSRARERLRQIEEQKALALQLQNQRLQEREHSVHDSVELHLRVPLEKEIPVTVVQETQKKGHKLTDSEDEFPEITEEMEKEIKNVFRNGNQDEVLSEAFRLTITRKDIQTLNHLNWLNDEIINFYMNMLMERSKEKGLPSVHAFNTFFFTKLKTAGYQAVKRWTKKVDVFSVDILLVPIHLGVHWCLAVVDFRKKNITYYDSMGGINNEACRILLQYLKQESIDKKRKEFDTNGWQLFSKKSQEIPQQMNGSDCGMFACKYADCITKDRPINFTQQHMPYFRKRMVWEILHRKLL

[4] = target: T2, Sentrin-specific protease 1; assay: Dose response confirmation of small molecule inhibitors of the catalytic domain of the SUMO protease, SENP1 in a FRET assay.; assay type: functional; conditions: read-out: IC50_Mean
[5] = target: T3, Rac GTPase-activating protein 1 (Homo sapiens, UniProt Q9H0H5); assay: MgcRacGAP GTPase-activating activity inhibitors, confirmation, biochemical, ADP Hunter fluorescence, primary and confirmatory (AID 624330); assay type: functional
T3 sequence (Q9H0H5 whole entry): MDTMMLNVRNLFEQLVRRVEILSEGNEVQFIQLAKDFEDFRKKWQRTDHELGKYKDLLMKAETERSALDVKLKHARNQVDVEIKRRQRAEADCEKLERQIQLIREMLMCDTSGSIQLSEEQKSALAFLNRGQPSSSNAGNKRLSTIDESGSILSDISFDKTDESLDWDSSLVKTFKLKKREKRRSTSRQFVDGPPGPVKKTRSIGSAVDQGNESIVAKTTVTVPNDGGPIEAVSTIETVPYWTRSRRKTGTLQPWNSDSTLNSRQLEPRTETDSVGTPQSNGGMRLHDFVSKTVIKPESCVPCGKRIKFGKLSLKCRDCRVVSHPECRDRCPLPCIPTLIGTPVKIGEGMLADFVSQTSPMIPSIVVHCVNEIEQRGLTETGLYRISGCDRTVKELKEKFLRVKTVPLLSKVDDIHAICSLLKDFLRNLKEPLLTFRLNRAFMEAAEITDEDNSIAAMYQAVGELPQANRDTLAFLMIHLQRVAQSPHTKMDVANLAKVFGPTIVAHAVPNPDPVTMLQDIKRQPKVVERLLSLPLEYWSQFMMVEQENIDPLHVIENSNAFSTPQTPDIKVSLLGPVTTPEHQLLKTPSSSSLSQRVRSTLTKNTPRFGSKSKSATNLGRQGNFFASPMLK

Vero = assay: Vero cell toxicity, dose response, cytotoxicity control, plate reader, cherry-pick samples (AID 687020); assay type: functional, cell-based; conditions: Chlorocebus sabaeus
A549 = assay: A549 cell toxicity, dose response, cytotoxicity control, plate reader, cherry-pick samples (AID 687028); assay type: functional, cell-based; conditions: Homo sapiens
[6] = target: T4, Small ubiquitin-related modifier 1 (Homo sapiens, UniProt P63165); assay: inhibitors of SUMO1 peptide binding, dose response, biochemical, fluorescence polarization, uHTS hits (AID 624382); assay type: functional; conditions: read-out: IC50_Mean
T4 sequence (P63165 whole entry): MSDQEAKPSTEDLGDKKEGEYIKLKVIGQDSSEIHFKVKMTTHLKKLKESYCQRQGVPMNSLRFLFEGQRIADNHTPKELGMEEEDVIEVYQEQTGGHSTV

[7] = target: T4, Small ubiquitin-related modifier 1; assay: inhibitors of SUMO1 partner interactions, dose response, biochemical, FRET (AID 624383); assay type: functional; conditions: read-out: IC50_Mean
BJ [8] = assay: cytotoxicity toward BJ-TERT fibroblasts, dose response, cell-based, RAS-independent, luminescence (AID 1933); assay type: functional; conditions: Homo sapiens
BJ [9] = assay: cells; assay type: functional, cell-based; conditions: Homo sapiens
[10] = inhibitors of intracellular T. cruzi replication, confirmation, NIH3T3 host cells, beta-gal luminescence (AID 2044); assay type: functional, cell-based;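 further: intracellular parasites grown in NIH/3T3 mouse fibroblasts as host cells; luminescent beta-galactosidase reporter signal from transgenic T. cruzi replicating inside host cells; inhibitors lower the luminescence signal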
[11] = cytotoxicity toward NIH3T3 fibroblasts, dose response, counter-screen, cell-based, ATP luminescence, mouse fibroblasts (AID 2010); assay type: functional;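 further: cells exposed to compound for about 90 hours before reading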
BJ [12] = assay: cytotoxicity toward BJ-TERT-LT-ST fibroblasts, dose response, cell-based, RAS-independent, luminescence (AID 1935); assay type: functional; conditions: Homo sapiens;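 further: BJ fibroblasts immortalized with TERT plus LT and ST oncogenes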
[13] = cytotoxicity toward DRD oncogenic fibroblasts, dose response, cell-based, non-viral oncogenic, luminescence (AID 1934); assay type: functional; conditions: Homo sapiens
[14] = target: Neurotensin receptor type 1 (Homo sapiens, UniProt P30989); assay type: functional;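 further: Image-based confirmatory dose-response assay measuring agonist activity at NTR1; NTR1-expressing U2OS osteosarcoma cells imaged for beta-arrestin GFP spot formation; agonist potency where compounds increase beta-arrestin recruitment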
Sequence of Neurotensin receptor type 1 (P30989 whole entry): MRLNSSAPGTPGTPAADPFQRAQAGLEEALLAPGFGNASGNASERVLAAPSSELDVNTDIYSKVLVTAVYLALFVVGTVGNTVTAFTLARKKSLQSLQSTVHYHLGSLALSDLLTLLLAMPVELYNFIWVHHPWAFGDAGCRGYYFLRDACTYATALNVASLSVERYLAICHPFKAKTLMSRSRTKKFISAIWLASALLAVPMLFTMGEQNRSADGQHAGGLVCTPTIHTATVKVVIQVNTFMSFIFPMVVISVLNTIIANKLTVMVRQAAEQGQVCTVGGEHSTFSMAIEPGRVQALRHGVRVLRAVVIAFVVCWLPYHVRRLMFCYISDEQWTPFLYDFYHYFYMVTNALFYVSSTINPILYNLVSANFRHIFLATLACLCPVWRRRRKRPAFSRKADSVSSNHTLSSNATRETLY

INS1 = assay: beta cell apoptosis inhibitors, cytokine rescue, dose response, luminescence, retest (AID 449756); assay type: functional, cell-based; conditions: Rattus norvegicus;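 further: cell death triggered by IL-1 beta plus TNF-alpha plus IFN-gamma mixture; protective hits raise ATP signal compared with cytokine alone wells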
[15] = HeLa cell cytotoxicity, dose response, cytotoxicity control for MgcRacGAP inhibitor project (AID 624300); assay type: functional
[16] = target: T5, DNA repair protein RAD52 homolog (Homo sapiens, UniProt P43351); assay type: functional, biochemical
T5 sequence (P43351 whole entry): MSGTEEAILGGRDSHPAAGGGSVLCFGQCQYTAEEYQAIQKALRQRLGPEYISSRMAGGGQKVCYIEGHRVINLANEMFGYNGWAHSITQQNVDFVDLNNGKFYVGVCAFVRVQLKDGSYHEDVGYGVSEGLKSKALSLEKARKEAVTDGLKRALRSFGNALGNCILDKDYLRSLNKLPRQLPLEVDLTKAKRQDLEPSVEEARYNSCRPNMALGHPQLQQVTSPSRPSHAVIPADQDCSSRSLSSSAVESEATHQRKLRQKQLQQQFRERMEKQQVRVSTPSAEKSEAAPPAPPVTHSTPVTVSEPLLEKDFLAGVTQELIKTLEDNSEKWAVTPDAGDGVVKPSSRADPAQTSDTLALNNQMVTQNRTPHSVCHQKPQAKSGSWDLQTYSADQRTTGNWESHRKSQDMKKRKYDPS

Paired box protein Pax-8 = Paired box protein Pax-8 (Homo sapiens, UniProt Q06710); assay: inhibitors of PAX8-driven TPO luciferase reporter, dose response, RMG-I cells, cherry-pick (AID 687027); assay type: functional, cell-based;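 further: luciferase reporter driven by Pax8 target thyroperoxidase promoter measured by SteadyGlo luminescence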
Sequence of Paired box protein Pax-8 (Q06710 whole entry): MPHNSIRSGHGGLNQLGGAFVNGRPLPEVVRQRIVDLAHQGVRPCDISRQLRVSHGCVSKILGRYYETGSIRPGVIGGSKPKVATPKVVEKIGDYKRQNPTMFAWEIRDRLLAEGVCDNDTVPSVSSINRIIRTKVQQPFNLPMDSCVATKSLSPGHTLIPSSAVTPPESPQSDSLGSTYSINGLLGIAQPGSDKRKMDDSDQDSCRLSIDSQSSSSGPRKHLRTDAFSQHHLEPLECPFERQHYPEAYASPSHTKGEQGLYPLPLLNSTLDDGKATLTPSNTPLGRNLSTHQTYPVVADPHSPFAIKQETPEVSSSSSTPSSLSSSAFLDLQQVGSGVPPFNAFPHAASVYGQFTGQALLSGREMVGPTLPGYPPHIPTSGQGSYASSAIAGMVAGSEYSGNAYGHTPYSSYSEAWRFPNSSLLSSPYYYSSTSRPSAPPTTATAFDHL

[17] = non-specific cell cytotoxicity, dose response, cytotoxicity control for PAX8 inhibitor project, plate reader, dry powder samples (AID 743021); assay type: functional, cell-based
[18] = target: T6, Probable nicotinate-nucleotide adenylyltransferase (Staphylococcus aureus (strain N315), UniProt P65502); assay type: functional, Staphylococcus aureus subsp. aureus N315;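 on IC50 Mean: confirmatory dose-response retesting of NadD inhibitor hits first found in an ultra-high-throughput screen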
T6 sequence (P65502 whole entry): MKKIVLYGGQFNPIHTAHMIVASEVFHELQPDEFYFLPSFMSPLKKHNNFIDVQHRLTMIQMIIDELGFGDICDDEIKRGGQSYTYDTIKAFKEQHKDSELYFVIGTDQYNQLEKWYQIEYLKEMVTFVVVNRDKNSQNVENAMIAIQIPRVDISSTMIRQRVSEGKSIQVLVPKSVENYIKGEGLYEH

[19] = target: T6, Probable nicotinate-nucleotide adenylyltransferase; assay type: functional, Staphylococcus aureus subsp. aureus N315; conditions: read-out: IC50_Mean

Which EC50 [1] does the source give for `COC(=O)CC1(C(=O)OC)Nc2cc(Cl)c(Cl)cc2S(=O)(=O)N1O` (stereo unspecified) here?
The EC50 was 1.14 µM (active).

What about the EC50 [2] of the same compound?
Its EC50 is > 99 µM (inactive).

And the IC50 (Albumin)?
The IC50 was > 94.2 µM (inactive).

For `C/C(=N\NC(=O)c1ccccc1F)c1ccc2c(c1)Nc1ccccc1S2`, which IC50 [3] is on record?
Its IC50 is 11.2 µM (active).

What about the IC50 [4] of the same compound?
The IC50 was 10.5 µM (active).

What about the IC50 [5] of the same compound?
The IC50 was 54.7 µM (active).

Which results are given for `O=C(OCc1cn([C@H]2CN(C(=O)C3CCCCC3)[C@@H](c3ccccc3)C[C@@H]2O)nn1)c1ccccc1`?
AC50 (Vero): 20.2 µM (active); AC50 (A549): 16.1 µM (active)

For `CCCC(C)C(=O)Nc1nc(C)c(-c2csc(Nc3cc(Cl)ccc3C)n2)s1` (stereo unspecified), which IC50 [6] is on record?
Its IC50 is > 66.6 µM (inactive).

What about the IC50 [7] of the same compound?
Its IC50 is 10.2 µM (active).

Which EC50 (BJ [8]) does the source give for `CC(C)Nc1ccc(Nc2ccnc3cc4ccccc4cc23)cc1` here?
Its EC50 is 3.71 µM (inconclusive).

And the EC50 (BJ [9])?
Its EC50 is 9.05 µM (inconclusive).

And the EC50 [10]?
Its EC50 is 0.632 µM (active).

And the EC50 [11]?
The EC50 was 6.48 µM (active).

What about the EC50 (BJ [12]) of the same compound?
The EC50 was 5.35 µM (inconclusive).

And the EC50 [13]?
Its EC50 is 4.73 µM (active).

And the EC50 [14]?
The EC50 was 12.2 µM (active).

And the AC50 (INS1)?
The AC50 was 3.15 µM (active).

And the CC50 [15]?
The CC50 was 17.2 µM (active).

And the IC50 [5]?
Its IC50 is 20 µM (active).

And the AC50 [16]?
The AC50 was 0.782 µM (active).

And the AC50 (Paired box protein Pax-8)?
Its AC50 is 7.04 µM (active).

And the AC50 [17]?
Its AC50 is 51.2 µM (active).

Which results are given for `Oc1ccc(C[C@H]2CNC(=S)N2CC2CCCN2C[C@H](Cc2ccccc2)N2C[C@H](Cc3ccc(O)cc3)N(CCc3ccccc3)C2=S)cc1` (stereo partly specified)?
IC50 [18]: 17 µM (active); IC50 [19]: 30.5 µM (active); AC50 (Paired box protein Pax-8): 11.5 µM (active)
